Laboratory results taken from US20170166555A1, “FUNCTIONALISED AND SUBSTITUTED INDOLES AS ANTI-CANCER AGENTS” (Novogen Limited, priority 2013, published 2017).

Experiments:
[1] = Tolerance in the A375 xenograft study (body weight, clinical observations); type: in vivo; settings: hydrochloride salt, 20 mg/kg intravenously QD, 15 days
Method: FIG. 5: Average body weight measurement ±SEM (grams) of animals in Control (Carbonate vehicle) and compound 4015 (20 mg/kg, I.V., QD) treated animals.
In vivo efficacy studies for compound 4015 hydrochloride salt were conducted using an A375 melanoma xenograft model in Foxn-1 nu/nu athymic mice. The human melanoma cell line A375 (sourced from American Type Culture Collection (ATCC), USA) was used for developing the flank xenograft model. Briefly, five million cells were injected subcutaneously in the right flank region of the animal. When the tumors reached 130-150 mm^3 the animals were randomized into two groups, each group with 8 animals in them, so that the average tumor volume of all the groups was same.
First group received vehicle (sodium bicarbonate buffer) intravenously once a day (QD). The second group received compound 4015 at 20 mg/kg, intravenously (QD) (Table 7). The volume of dosing to each animal was calculated and adjusted every day based on individual body weight measured prior to dosing.
Animals were treated from the day of randomization (Day 1) for 15 days. Body weight and tumor dimensions (length and diameter) were measured three times in a week including the termination day of the study. Throughout the study period, mice were monitored daily for clinical condition.

[2] = tested on: non-transfected and Tm5NM1 stably transfected MEFs; experiment: MTT viability in non-transfected versus Tm5NM1 stably transfected MEFs; type: cell-based, mouse; settings: 48 hr, FIG. 1
Method: FIG. 1: Activity of selected compounds against Tm5NM1/2 transfected mouse embryonic fibroblasts versus non-transfected MEFs.
Compounds 4001, 4010, 4014, 4008 and 4015 were then screened against non-transfected and Tm5NM1 stably transfected MEFs. Briefly, MEFs were transfected with pEYFP-C1/Tm5NM1 constructs using the Amaxa nucleofector apparatus (program A-023) and MEF nucleofector kit 1 (Lonza) according to the manufacturer's instructions. Cell viability assays were also conducted to assess the anti-proliferative effects of the anti-tropomyosin compounds. Briefly, cells (1×10^3/well) were plated (96-well) and treated (48 hr) with anti-tropomyosin compounds and viability measured using 3-(4,5-dimethylthiazol-2-yl)-2, 5-diphenylterazolium bromide MTT. Cell viability was normalized to control (vehicle alone) and dose-response curves, and half maximal effective concentration (EC50) values were determined using Graph Pad Prism 5 (nonlinear regression sigmoidal dose-response variable slope).

SMILES: Cc1c(C)n(CCCN(C)C)c2ccc(CN3CCN(CCc4ccccc4)CC3)cc12 [Compound 4015, 3-(2,3-dimethyl-5-((4-phenethylpiperazin-1-yl)methyl)-1H-indol-1-yl)-N,N-dimethylpropan-1-amine]
- Tolerability (body weight and clinical observations) [1]: well tolerated
- Selectivity: toxicity against primary MEFs versus MEFs stably transfected with Tm5NM1/2 [2]: less toxicity noted against primary mouse embryonic fibroblasts (MEFs) compared with MEFs stably transfected with Tm5NM1/2
